# How the values were obtained:
# [1] = test system: Aureobasidium pullulans ATCC 9348; settings: Fungi; cited from earlier work
# [2] = test system: Bacillus subtilis ATCC 6633; settings: Gram + bacteria; cited from earlier work
# [3] = animals and humans; cited from earlier work
# [4] = test system: Staphylococcus aureus ATCC 6538; settings: Gram + bacteria; cited from earlier work
# [5] = test system: Lactobacillus delbrueckii ssp lactis CECT 372; settings: Gram + bacteria; cited from earlier work
# [6] = test system: Penicillium chrysogenum CECT 2802; settings: Fungi; cited from earlier work
# [7] = test system: S. typhimurium LPS; experiment: Endotoxin deactivation as a function of LAE concentration, LAL assay; type: biochemical, Salmonella typhimurium; settings: for CONCENTRATION Endotoxin: S. typhimurium LPS 10 μg/ml, 2 hours at 37° C., control without LAE 17000
# Method: The 1 mg/ml stock solution of S. typhimurium LPS was prepared using the commercially available LPS obtained from the List Biological Laboratories, Inc. (cat #225). The 20 μg/ml solution of LPS was prepared by serially diluting the stock. All the LPS solutions were kept at refrigeration temperatures according to the instructions provided by the manufacturer.
# The solutions of LAE prepared were used in the experiment. For the procedure, 500 μl of 20 μg/ml of endotoxins were mixed with 500 μl of LAE solution (10, 20, 40, 60 and 100 μg/ml) in glass reaction tubes, giving the final concentration of LPS, 10 μg/ml and the concentration range of LAE, 5-50 μg/ml. As a negative control, LPS was mixed with 1 mg/ml aqueous solution of propylene glycol. The mixture was incubated for 2 hours at 37° C. Each sample was serially diluted using the LAL reagent water to be assayed for the endotoxin activity.
# [8] = test system: Penicillium funiculosum CECT 2914; settings: Fungi; cited from earlier work
# [9] = test system: Rhodotorula rubra CECT 1158; settings: Yeast; cited from earlier work
# [10] = test system: Micrococcus luteus ATCC 9631; settings: Gram + bacteria; cited from earlier work
# [11] = test system: Serratia marcenses CECT 274; settings: Gram − bacteria; cited from earlier work
# [12] = test system: Salmonella typhimurium ATCC 16028; settings: Gram − bacteria; cited from earlier work
# [13] = test system: Leuconostoc mesenteroides CETC 912; settings: Gram + bacteria; cited from earlier work
# [14] = test system: Gliocadium virens ATCC 4645; settings: Fungi; cited from earlier work
# [15] = test system: Aspergillus niger ATCC 14604; settings: Fungi; cited from earlier work
# [16] = rats; cited from earlier work
# [17] = test system: Escherichia coli ATCC 8739; settings: Gram − bacteria; cited from earlier work
# [18] = test system: Enterobacter aerogenes CECT 689; settings: Gram − bacteria; cited from earlier work
# [19] = test system: Alcaligenes faecalis ATCC 8750; settings: Gram − bacteria; cited from earlier work
# [20] = test system: Arthrobacter oxydans ATCC 8010; settings: Gram + bacteria; cited from earlier work
# [21] = test system: Proteus mirabilis CECT 170; settings: Gram − bacteria; cited from earlier work
# [22] = test system: Citrobacter freundii ATCC 22636; settings: Gram − bacteria; cited from earlier work
# [23] = test system: Listeria monocytogenes ATCC 7644; settings: Gram + bacteria; cited from earlier work
# [24] = test system: Klebsiella pneumoniae var pneumoniae CECT 178; settings: Gram − bacteria; cited from earlier work
# [25] = test system: Candida albicans ATCC 10231; settings: Yeast; cited from earlier work
# [26] = test system: Saccharomyces cerevisiae ATCC 9763; settings: Yeast; cited from earlier work
# [27] = test system: Human epithelial cell lines (KB); experiment: LPS-induced release of peptidases from human cell culture, fluorigenic substrate; type: cell-based; settings: for Peptidase released: LAE 2 μg/ml; for Peptidase released / reduction of the toxicity of LPS (measured by fluorescence release): KB cells
# Method: Human epithelial cell lines (KB) were obtained from American Cell type collection and grown in BGJ medium (Gibco, Buffalo, N.Y.) at 37° C. with 5% CO2. The medium was supplemented with 5% heated calf serum. Cells were placed in 24 well dishes with 0.5 ml medium per well. The release of peptidases from the human cell lines in response to LPS was measured by a coumarin based fluorigenic substrate utilized to study eukaryotic enzymes that degrade extracellular matrix proteins (collagen and fibronectin) and inactivated by inhibitors of matrix of metalloprotease (Yang et al. Abstract 105 at the 105th ASM general meeting).
# The release of peptidase was measured by sensitive fluorescence test.
# [28] = test system: Clostridium perfringens ATCC 77454; settings: Gram + bacteria; cited from earlier work
# [29] = test system: Pseudomonas aeruginosa ATCC 9027; settings: Gram − bacteria; cited from earlier work
# [30] = test system: Bordetella bronchiseptica ATCC 4617; settings: Gram − bacteria; cited from earlier work
# [31] = test system: endotoxins produced by E. coli O113:H10; experiment: Endotoxin deactivation by LAE, LAL assay (turbidimetric, pyrochrome); type: biochemical; settings: E. coli O113:H10 endotoxin 12.5 μg/ml, incubated two hours at 37° C., control without LAE 120
# Method: Turbidimetric LAL test was conducted according to the instructions provided by the manufacturer (Pyrotell-T, The associates of Cape Cod, Inc.). The standard curve was built based on 300, 30, 3, 0.3, 0.03 and 0.003 EU/ml. The same endotoxin in concentrations of 12.5 μg/ml was used in the experiment.
# LAE was applied in concentrations of 0, 5, 10, 20, 30, 50 μg/ml to assess this compound's ability to deactivate endotoxins. LAL reagent water (LRW) was used to make all the endotoxin dilutions including the standards. MIRENAT-CF is a 10.5% solution of LAE in Propylene glycol, so the dilutions of MIRENAT-CF were initially made in propylene glycol, so that concentration of LAE was kept as the only variable. For the presumptive deactivation procedure, the endotoxin was incubated together with LAE for two hours at 37° C. The turbidimetric assay was conducted two times using the onset time for OD405=0.05. The pyrochrome assay was conducted once using the same template on plates.
# [32] = test system: Chaetonium globosum ATCC 6205; settings: Fungi; cited from earlier work
# [33] = test system: Bacillus cereus var mycoide ATCC 11778; settings: Gram + bacteria; cited from earlier work
substance,measurement,setting,value
ethyl ester of the lauramide of the arginine monohydrochloride [LAE],M.I.C.,[1],16 ppm
same,M.I.C.,[2],16 ppm
same,toxicity,[3],completely harmless to animals and humans
same,M.I.C.,[4],32 ppm
same,M.I.C.,[5],16 ppm
same,M.I.C.,[6],128 ppm
same,CONCENTRATION Endotoxin,[7]; LAE 5 μg/ml (as MIRENAT-CF),4000 EU/ml × 10E3
same,CONCENTRATION Endotoxin,[7]; LAE 10 μg/ml (as MIRENAT-CF),3995 EU/ml × 10E3
same,CONCENTRATION Endotoxin,[7]; LAE 20 μg/ml (as MIRENAT-CF),3000 EU/ml × 10E3
same,CONCENTRATION Endotoxin,[7]; LAE 30 μg/ml (as MIRENAT-CF),4000 EU/ml × 10E3
same,CONCENTRATION Endotoxin,[7]; LAE 50 μg/ml (as MIRENAT-CF),2500 EU/ml × 10E3
same,dose response of the deactivation effect,[7]; LAE concentration range 5-50 μg/ml,does not follow a dose response
same,effect on the activity of S. typhimurium endotoxins,[7]; LAE in concentrations of 5-50 μg/ml,significantly decreased
same,M.I.C.,[8],16 ppm
same,M.I.C.,[9],16 ppm
same,M.I.C.,[10],128 ppm
same,M.I.C.,[11],2 ppm
same,M.I.C.,[12],32 ppm
same,M.I.C.,[13],32 ppm
same,M.I.C.,[14],32 ppm
same,M.I.C.,[15],32 ppm
same,absorption and metabolism,[16],fast absorption and metabolisation into naturally-occurring amino acids and the fatty acid lauric acid
same,M.I.C.,[17],32 ppm
same,M.I.C.,[18],32 ppm
same,M.I.C.,[19],64 ppm
same,M.I.C.,[20],64 ppm
same,M.I.C.,[21],64 ppm
same,M.I.C.,[22],64 ppm
same,M.I.C.,[23],10 ppm
same,M.I.C.,[24],32 ppm
same,M.I.C.,[25],16 ppm
same,M.I.C.,[26],32 ppm
same,release of peptidase by LAE per se,"[27]; 2 μg LAE/ml without LPS, similar to the blank",less than 300 units
same,peptidase response to LPS,"[27]; LAE 2 μg/ml added to LPS, both doses of LPS tested (10 and 20 μg/ml)",significant reduction of peptidase response
same,Peptidase released,"[27]; LPS 0 μg/ml, blank sample 400",296 Fluorescence units
same,Peptidase released,"[27]; LPS 10 μg/ml, LPS alone 900",580 Fluorescence units
same,Peptidase released,"[27]; LPS 20 μg/ml, LPS alone 1200",655 Fluorescence units
same,reduction of the toxicity of LPS (measured by fluorescence release),[27]; LPS 10 μg/ml pre-mixed with 2 μg/ml of LAE,35.6%
same,reduction of the toxicity of LPS (measured by fluorescence release),[27]; LPS 20 μg/ml pre-mixed with 2 μg/ml of LAE,45.4%
same,M.I.C.,[28],16 ppm
same,M.I.C.,[29],32 ppm
same,M.I.C.,[30],128 ppm
same,CONCENTRATION Endotoxin,[31]; LAE 10 μg/ml,80 EU/ml × 10E3
same,CONCENTRATION Endotoxin,[31]; LAE 50 μg/ml,61 EU/ml × 10E3
same,M.I.C.,[32],16 ppm
same,M.I.C.,[33],32 ppm

# From patent publication US20110230558A1 (priority 2008, published 2011)
